Results: publication PMC3293798, “Amino Acid Residues Contributing to Function of the Heteromeric Insect Olfactory Receptor Complex” (PLoS ONE, 2012)
Where a chain is given by its changes, count along the chain named.

Assays:
Type in all cases: cell-based
BmOr-1-BmOrco [1] = target: T1, BmOr-1-BmOrco (Bombyx mori, UniProt Q5WA61); experiment: two-electrode voltage clamp, Xenopus oocytes, bombykol response after MTSET; details: covalent; Cys modification of native Cys suggested; 60 s pretreatment; bombykol 1 µM
T1 construct: full-length cRNAs from modified pSPUTK vector, co-injected (25 ng each) in Xenopus laevis oocytes; heteromer of unknown stoichiometry; with Odorant receptor coreceptor
T1 sequence (Q5WA61 1-430): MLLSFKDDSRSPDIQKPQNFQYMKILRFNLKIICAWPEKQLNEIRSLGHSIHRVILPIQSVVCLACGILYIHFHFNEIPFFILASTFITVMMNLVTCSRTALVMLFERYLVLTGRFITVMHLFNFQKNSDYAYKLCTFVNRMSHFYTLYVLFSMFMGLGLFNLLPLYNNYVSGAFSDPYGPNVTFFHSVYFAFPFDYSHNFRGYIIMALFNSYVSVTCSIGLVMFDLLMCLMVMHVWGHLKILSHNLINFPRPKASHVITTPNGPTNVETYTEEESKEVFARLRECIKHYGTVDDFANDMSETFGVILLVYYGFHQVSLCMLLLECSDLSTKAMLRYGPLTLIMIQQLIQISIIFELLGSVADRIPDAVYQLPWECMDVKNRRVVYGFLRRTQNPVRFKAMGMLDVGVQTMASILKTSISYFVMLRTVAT
T1 sequence (Q7YT34 1-472 partner): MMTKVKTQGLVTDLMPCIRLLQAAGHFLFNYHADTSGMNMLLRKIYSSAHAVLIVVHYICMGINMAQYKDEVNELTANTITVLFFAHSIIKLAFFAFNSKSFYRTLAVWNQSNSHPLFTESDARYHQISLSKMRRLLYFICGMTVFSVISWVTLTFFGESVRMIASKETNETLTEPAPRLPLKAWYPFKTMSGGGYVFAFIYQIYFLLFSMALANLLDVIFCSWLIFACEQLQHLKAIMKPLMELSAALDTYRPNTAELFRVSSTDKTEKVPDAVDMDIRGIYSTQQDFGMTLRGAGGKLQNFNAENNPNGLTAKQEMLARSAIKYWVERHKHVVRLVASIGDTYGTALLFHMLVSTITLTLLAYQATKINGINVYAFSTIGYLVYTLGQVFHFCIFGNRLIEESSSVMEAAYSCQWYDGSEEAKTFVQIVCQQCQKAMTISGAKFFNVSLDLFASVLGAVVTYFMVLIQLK

BmOr-1-BmOrco [2] = target: T2, BmOr-1-BmOrco (Bombyx mori, UniProt Q5WA61, E356C); experiment: two-electrode voltage clamp, Xenopus oocytes, dose-response
T2 construct: full-length cRNAs from modified pSPUTK vector, co-injected (25 ng each) in Xenopus laevis oocytes; heteromer of unknown stoichiometry; with Odorant receptor coreceptor
T2 sequence (Q5WA61 1-430 E356C): T1 sequence (Q5WA61 1-430) with E356C
T2 sequence (Q7YT34 1-472 partner): T1 sequence (Q7YT34 1-472 partner)

BmOr-1-BmOrco [3] = target: T1, BmOr-1-BmOrco; experiment: as above
[4] = target: T3, Or47a with Drosophila Orco (Drosophila melanogaster, UniProt P81921); experiment: two-electrode voltage clamp, Xenopus oocytes, current-voltage curves; details: agonist; 1 mM odorant
T3 construct: full-length cRNAs co-injected in Xenopus laevis oocytes; heteromer of unknown stoichiometry; with Odorant receptor coreceptor
T3 sequence (P81921 1-385): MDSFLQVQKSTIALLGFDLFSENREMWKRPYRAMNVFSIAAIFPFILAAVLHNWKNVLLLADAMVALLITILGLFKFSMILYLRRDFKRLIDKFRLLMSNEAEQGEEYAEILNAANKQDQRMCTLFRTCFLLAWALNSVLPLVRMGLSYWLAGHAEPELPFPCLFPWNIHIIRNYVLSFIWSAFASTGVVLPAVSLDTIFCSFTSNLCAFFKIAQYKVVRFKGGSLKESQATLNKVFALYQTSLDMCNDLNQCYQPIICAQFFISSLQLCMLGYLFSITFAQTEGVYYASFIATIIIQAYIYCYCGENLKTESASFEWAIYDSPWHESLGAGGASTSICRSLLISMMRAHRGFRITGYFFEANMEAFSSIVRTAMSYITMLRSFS
T3 sequence (Q9VNB5 1-486 partner): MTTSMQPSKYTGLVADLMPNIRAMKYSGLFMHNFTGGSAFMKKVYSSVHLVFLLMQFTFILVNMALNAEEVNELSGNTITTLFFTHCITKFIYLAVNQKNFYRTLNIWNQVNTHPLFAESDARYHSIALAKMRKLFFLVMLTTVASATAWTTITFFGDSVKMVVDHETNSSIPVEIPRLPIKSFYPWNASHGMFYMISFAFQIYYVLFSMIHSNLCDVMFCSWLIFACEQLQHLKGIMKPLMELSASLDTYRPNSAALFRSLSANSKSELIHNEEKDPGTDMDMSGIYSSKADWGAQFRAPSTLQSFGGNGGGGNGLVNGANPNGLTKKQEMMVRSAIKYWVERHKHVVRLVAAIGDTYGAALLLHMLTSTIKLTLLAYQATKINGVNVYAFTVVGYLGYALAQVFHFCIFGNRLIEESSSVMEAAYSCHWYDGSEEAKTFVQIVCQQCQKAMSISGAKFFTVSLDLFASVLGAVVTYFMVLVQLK

[5] = target: T4, Or22a with Drosophila Orco (Drosophila melanogaster, UniProt P81909); experiment: as above; details: agonist; 1 mM odorant
T4 construct: full-length cRNAs co-injected in Xenopus laevis oocytes; heteromer of unknown stoichiometry; with Odorant receptor coreceptor
T4 sequence (P81909 1-397): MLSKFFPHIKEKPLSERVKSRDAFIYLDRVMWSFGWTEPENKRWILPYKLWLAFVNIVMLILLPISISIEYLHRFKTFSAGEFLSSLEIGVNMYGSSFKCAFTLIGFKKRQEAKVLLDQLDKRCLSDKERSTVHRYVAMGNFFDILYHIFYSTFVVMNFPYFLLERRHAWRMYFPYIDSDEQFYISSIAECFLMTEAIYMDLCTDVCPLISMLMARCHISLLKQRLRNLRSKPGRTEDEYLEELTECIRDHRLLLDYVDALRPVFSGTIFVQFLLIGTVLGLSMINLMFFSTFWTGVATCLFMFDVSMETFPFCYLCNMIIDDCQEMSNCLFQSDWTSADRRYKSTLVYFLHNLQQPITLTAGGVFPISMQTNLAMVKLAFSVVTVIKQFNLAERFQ
T4 sequence (Q9VNB5 1-486 partner): T3 sequence (Q9VNB5 1-486 partner)

With `C[N+](C)(C)CCSS(C)(=O)=O` [MTSET] as the compound, how does the “% reduction of bombykol response at 2.5 mM” value (BmOr-1-BmOrco [1]) read?
Its value is 46%.

Which results are given for `CCC/C=C\C=C\CCCCCCCCCO` [Bombykol]?
EC50 (BmOr-1-BmOrco [2]): 0.3 µM; EC50 (BmOr-1-BmOrco [3]): 0.19 µM

Which “two-electrode voltage clamp, Xenopus oocytes, current-voltage curves” value [4] does the source give for `CCCCCOC(C)=O` [pentyl acetate] here?
The value was “channels gated by their cognate ligands (ethyl butyrate, pentyl acetate”.

For `CCCC(=O)OCC` [ethyl butyrate], which “two-electrode voltage clamp, Xenopus oocytes, current-voltage curves” value [5] is on record?
The value was “channels gated by their cognate ligands (ethyl butyrate, pentyl acetate”.
